Measurements published in patent US11000033B2, “Ketone or oxime compound, and herbicide” (NISSAN CHEMICAL CORPORATION, priority 2014, dated 2021).

How the values were obtained:
Assay type in all cases: in vivo
wheat = assay: Test Example 4: effect on crop by soil treatment (symbol e); details: application herbicide amount 320 g/ha
Method in brief: (§1)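 Diluvial soil (sterilized) in boxes; seeds placed spot-wise alongside weed species; ~1.5 cm covering soil. Greenhouse, 25–30° C.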

[1] = test system: Echinochloa crus-galli var. crus-galli; assay: Test Example 4: herbicidal effect by soil treatment (symbol H); details: application herbicide amount 320 g/ha
Method in brief: (§2)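 Seeds were sown in sterilized diluvial soil, covered with about 1.5 cm of soil, and the soil surface was sprayed with a water-diluted emulsion of the compound at a predetermined rate. Plants grew in a greenhouse at 25° C. to 30° C.; effects were scored visually 3 weeks after application.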

Chenopodium album = assay: Test Example 5: herbicidal effect by foliage application, plastic box (symbol O); details: 320 g/ha, 3 weeks after application
Method in brief: (§3)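 Leaf-applied emulsion, water-diluted to a preset herbicide dose, on two-week-old seedlings raised in a 25° C. to 30° C. greenhouse; injury rated at 3 weeks using earlier criteria.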

Avena fatua [2] = assay: Test Example 5: herbicidal effect by foliage application, plastic box (symbol I); details: 320 g/ha, 3 weeks after application
Method in brief: as §3

Scirpus juncoides [3] = assay: Test Example 1: herbicidal activity, application before weed generation in submerged conditions (symbol B); details: application herbicide amount 320 g/ha
Method in brief: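 Pre-emergence, paddy conditions: emulsifiable formulation diluted in water, dosed onto floodwater (4 cm depth) on sowing day. Alluvial soil; weeds sown mixed; rice transplanted at 2.5-leaf stage. Greenhouse 25–30 °C, 3 wk. Score 0–5 (5 = ≥90% kill, 0 = ≤5%).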

Galium spurium [4] = assay: Test Example 5: herbicidal effect by foliage application, plastic box (symbol Q); details: 320 g/ha, 3 weeks after application
Method in brief: as §3

Setaria viridis = assay: Test Example 5: herbicidal effect by foliage application, plastic box (symbol G); details: 320 g/ha, 3 weeks after application
Method in brief: as §3

beet [5] = assay: Test Example 5: effect on crop by foliage application, plastic box (symbol f); details: 320 g/ha, 3 weeks after application
Method in brief: (§4)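 Crop and weed seeds sown in spots in sterilized diluvial soil in plastic boxes and covered with about 1.5 cm soil. Plants raised in a greenhouse at 25° C. to 30° C. for foliar application.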

Apera spica-venti [6] = assay: Test Example 5: herbicidal effect by foliage application, plastic box (symbol L); details: 320 g/ha, 3 weeks after application
Method in brief: as §3

rapeseed = assay: Test Example 4: effect on crop by soil treatment (symbol g); details: application herbicide amount 320 g/ha
Method in brief: as §1

Veronica persica = assay: Test Example 5: herbicidal effect by foliage application, plastic box (symbol R); details: 320 g/ha, 3 weeks after application
Method in brief: as §3

beet [7] = assay: Test Example 4: effect on crop by soil treatment (symbol f); details: application herbicide amount 320 g/ha
Method in brief: as §1

Galium spurium [8] = assay: Test Example 4: herbicidal effect by soil treatment (symbol Q); details: application herbicide amount 320 g/ha
Method in brief: as §2

Scirpus juncoides [9] = assay: Test Example 2: herbicidal activity, application during weed generation in submerged conditions (symbol B); details: Table 23; application herbicide amount 320 g/ha; grade 0-5 by criteria of Test Example 1
Method in brief: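 Seeds sown in flooded alluvial soil (4 cm water) were grown in a 25-30° C greenhouse. At the one- to two-leaf stage, diluted emulsion of compound was applied to the water surface at a predetermined rate. Effect was scored 3 weeks later.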

Apera spica-venti [10] = assay: Test Example 4: herbicidal effect by soil treatment (symbol L); details: application herbicide amount 320 g/ha
Method in brief: as §2

Amaranthus retroflexus = assay: Test Example 4: herbicidal effect by soil treatment (symbol N); details: application herbicide amount 320 g/ha
Method in brief: as §2

soybean = assay: Test Example 5: effect on crop by foliage application, plastic box (symbol d); details: 320 g/ha, 3 weeks after application
Method in brief: as §4

Avena fatua [11] = assay: Test Example 4: herbicidal effect by soil treatment (symbol I); details: application herbicide amount 320 g/ha
Method in brief: as §2

CC(=O)CC1CC(O)=C(c2c(C)cc(-c3ccc(C(F)(F)F)cc3)cc2C)C1=O (stereo not drawn) [7-005]
Effect on crop grade, e: wheat (wheat): 0 (Herbicidal ratio of 5% or lower (almost no effect)) | Herbicidal effect grade, H: Echinochloa crus-galli var. crus-galli [1]: 0 (Herbicidal ratio of 5% or lower (almost no effect)) | O: Chenopodium album, herbicidal effect (criteria of Test Example 1) (Chenopodium album): 3 (Herbicidal ratio of 40% or higher and lower than 70%) | I: Avena fatua, herbicidal effect (criteria of Test Example 1) (Avena fatua [2]): 2 (Herbicidal ratio of 20% or higher and lower than 40%) | Herbicidal effect grade, B: Scirpus juncoides (Scirpus juncoides [3]): 0 (Herbicidal ratio of 5% or lower (almost no effect)) | Q: Galium spurium, herbicidal effect (criteria of Test Example 1) (Galium spurium [4]): 0 (Herbicidal ratio of 5% or lower (almost no effect)) | G: Setaria viridis, herbicidal effect (criteria of Test Example 1) (Setaria viridis): 4 (Herbicidal ratio of 70% or higher and lower than 90%) | f: beet, effect on crop (criteria of Test Example 1) (beet [5]): 0 (Herbicidal ratio of 5% or lower (almost no effect)) | L: Apera spica-venti, herbicidal effect (criteria of Test Example 1) (Apera spica-venti [6]): 4 (Herbicidal ratio of 70% or higher and lower than 90%) | Effect on crop grade, g: rapeseed (rapeseed): 0 (Herbicidal ratio of 5% or lower (almost no effect)) | R: Veronica persica, herbicidal effect (criteria of Test Example 1) (Veronica persica): 0 (Herbicidal ratio of 5% or lower (almost no effect)) | Effect on crop grade, f: beet (beet [7]): 0 (Herbicidal ratio of 5% or lower (almost no effect)) | Herbicidal effect grade, Q: Galium spurium (Galium spurium [8]): 0 (Herbicidal ratio of 5% or lower (almost no effect)) | Herbicidal effect grade, B: Scirpus juncoides (Scirpus juncoides [9]): 0 (Herbicidal ratio of 5% or lower (almost no effect)) | Herbicidal effect grade, L: Apera spica-venti (Apera spica-venti [10]): 0 (Herbicidal ratio of 5% or lower (almost no effect)) | Herbicidal effect grade, N: Amaranthus retroflexus (Amaranthus retroflexus): 0 (Herbicidal ratio of 5% or lower (almost no effect)) | d: soybean, effect on crop (criteria of Test Example 1) (soybean): 0 (Herbicidal ratio of 5% or lower (almost no effect)) | Herbicidal effect grade, I: Avena fatua (Avena fatua [11]): 0 (Herbicidal ratio of 5% or lower (almost no effect))

CC#Cc1cc(C)c(C2=C(O)CC(CC(C)=O)C2=O)c(C)c1 (stereo not drawn) [7-010]
Effect on crop grade, e: wheat (wheat): 4 (Herbicidal ratio of 70% or higher and lower than 90%) | Herbicidal effect grade, H: Echinochloa crus-galli var. crus-galli [1]: 5 (Herbicidal ratio of 90% or more (almost completely withered)) | O: Chenopodium album, herbicidal effect (criteria of Test Example 1) (Chenopodium album): 2 (Herbicidal ratio of 20% or higher and lower than 40%) | I: Avena fatua, herbicidal effect (criteria of Test Example 1) (Avena fatua [2]): 4 (Herbicidal ratio of 70% or higher and lower than 90%) | Herbicidal effect grade, B: Scirpus juncoides (Scirpus juncoides [3]): 5 (Herbicidal ratio of 90% or more (almost completely withered)) | Q: Galium spurium, herbicidal effect (criteria of Test Example 1) (Galium spurium [4]): 0 (Herbicidal ratio of 5% or lower (almost no effect)) | G: Setaria viridis, herbicidal effect (criteria of Test Example 1) (Setaria viridis): 5 (Herbicidal ratio of 90% or more (almost completely withered)) | f: beet, effect on crop (criteria of Test Example 1) (beet [5]): 0 (Herbicidal ratio of 5% or lower (almost no effect)) | L: Apera spica-venti, herbicidal effect (criteria of Test Example 1) (Apera spica-venti [6]): 5 (Herbicidal ratio of 90% or more (almost completely withered)) | Effect on crop grade, g: rapeseed (rapeseed): 3 (Herbicidal ratio of 40% or higher and lower than 70%) | R: Veronica persica, herbicidal effect (criteria of Test Example 1) (Veronica persica): 4 (Herbicidal ratio of 70% or higher and lower than 90%) | Effect on crop grade, f: beet (beet [7]): 0 (Herbicidal ratio of 5% or lower (almost no effect)) | Herbicidal effect grade, Q: Galium spurium (Galium spurium [8]): 0 (Herbicidal ratio of 5% or lower (almost no effect)) | Herbicidal effect grade, B: Scirpus juncoides (Scirpus juncoides [9]): 5 (Herbicidal ratio of 90% or more (almost completely withered)) | Herbicidal effect grade, L: Apera spica-venti (Apera spica-venti [10]): 5 (Herbicidal ratio of 90% or more (almost completely withered)) | Herbicidal effect grade, N: Amaranthus retroflexus (Amaranthus retroflexus): 0 (Herbicidal ratio of 5% or lower (almost no effect)) | d: soybean, effect on crop (criteria of Test Example 1) (soybean): 3 (Herbicidal ratio of 40% or higher and lower than 70%) | Herbicidal effect grade, I: Avena fatua (Avena fatua [11]): 2 (Herbicidal ratio of 20% or higher and lower than 40%)

CC(=O)CC1CC(O)=C(c2c(C)cc(C)cc2Br)C1=O (stereo not drawn) [7-011]
Effect on crop grade, e: wheat (wheat): 0 (Herbicidal ratio of 5% or lower (almost no effect)) | Herbicidal effect grade, H: Echinochloa crus-galli var. crus-galli [1]: 4 (Herbicidal ratio of 70% or higher and lower than 90%) | O: Chenopodium album, herbicidal effect (criteria of Test Example 1) (Chenopodium album): 3 (Herbicidal ratio of 40% or higher and lower than 70%) | I: Avena fatua, herbicidal effect (criteria of Test Example 1) (Avena fatua [2]): 3 (Herbicidal ratio of 40% or higher and lower than 70%) | Herbicidal effect grade, B: Scirpus juncoides (Scirpus juncoides [3]): 1 (Herbicidal ratio of 5% or higher and lower than 20%) | Q: Galium spurium, herbicidal effect (criteria of Test Example 1) (Galium spurium [4]): 0 (Herbicidal ratio of 5% or lower (almost no effect)) | G: Setaria viridis, herbicidal effect (criteria of Test Example 1) (Setaria viridis): 3 (Herbicidal ratio of 40% or higher and lower than 70%) | f: beet, effect on crop (criteria of Test Example 1) (beet [5]): 0 (Herbicidal ratio of 5% or lower (almost no effect)) | L: Apera spica-venti, herbicidal effect (criteria of Test Example 1) (Apera spica-venti [6]): 3 (Herbicidal ratio of 40% or higher and lower than 70%) | Effect on crop grade, g: rapeseed (rapeseed): 4 (Herbicidal ratio of 70% or higher and lower than 90%) | R: Veronica persica, herbicidal effect (criteria of Test Example 1) (Veronica persica): 1 (Herbicidal ratio of 5% or higher and lower than 20%) | Effect on crop grade, f: beet (beet [7]): 0 (Herbicidal ratio of 5% or lower (almost no effect)) | Herbicidal effect grade, Q: Galium spurium (Galium spurium [8]): 0 (Herbicidal ratio of 5% or lower (almost no effect)) | Herbicidal effect grade, B: Scirpus juncoides (Scirpus juncoides [9]): 2 (Herbicidal ratio of 20% or higher and lower than 40%) | Herbicidal effect grade, L: Apera spica-venti (Apera spica-venti [10]): 3 (Herbicidal ratio of 40% or higher and lower than 70%) | Herbicidal effect grade, N: Amaranthus retroflexus (Amaranthus retroflexus): 0 (Herbicidal ratio of 5% or lower (almost no effect)) | d: soybean, effect on crop (criteria of Test Example 1) (soybean): 0 (Herbicidal ratio of 5% or lower (almost no effect)) | Herbicidal effect grade, I: Avena fatua (Avena fatua [11]): 0 (Herbicidal ratio of 5% or lower (almost no effect))

CC(=O)CC1CC(O)=C(c2c(C)cc(OCc3ccccc3)cc2C)C1=O (stereo not drawn) [7-018]
Effect on crop grade, e: wheat (wheat): 0 (Herbicidal ratio of 5% or lower (almost no effect)) | Herbicidal effect grade, H: Echinochloa crus-galli var. crus-galli [1]: 0 (Herbicidal ratio of 5% or lower (almost no effect)) | O: Chenopodium album, herbicidal effect (criteria of Test Example 1) (Chenopodium album): 0 (Herbicidal ratio of 5% or lower (almost no effect)) | I: Avena fatua, herbicidal effect (criteria of Test Example 1) (Avena fatua [2]): 0 (Herbicidal ratio of 5% or lower (almost no effect)) | Herbicidal effect grade, B: Scirpus juncoides (Scirpus juncoides [3]): 0 (Herbicidal ratio of 5% or lower (almost no effect)) | Q: Galium spurium, herbicidal effect (criteria of Test Example 1) (Galium spurium [4]): 0 (Herbicidal ratio of 5% or lower (almost no effect)) | G: Setaria viridis, herbicidal effect (criteria of Test Example 1) (Setaria viridis): 4 (Herbicidal ratio of 70% or higher and lower than 90%) | f: beet, effect on crop (criteria of Test Example 1) (beet [5]): 0 (Herbicidal ratio of 5% or lower (almost no effect)) | L: Apera spica-venti, herbicidal effect (criteria of Test Example 1) (Apera spica-venti [6]): 2 (Herbicidal ratio of 20% or higher and lower than 40%) | Effect on crop grade, g: rapeseed (rapeseed): 0 (Herbicidal ratio of 5% or lower (almost no effect)) | R: Veronica persica, herbicidal effect (criteria of Test Example 1) (Veronica persica): 0 (Herbicidal ratio of 5% or lower (almost no effect)) | Effect on crop grade, f: beet (beet [7]): 0 (Herbicidal ratio of 5% or lower (almost no effect)) | Herbicidal effect grade, Q: Galium spurium (Galium spurium [8]): 0 (Herbicidal ratio of 5% or lower (almost no effect)) | Herbicidal effect grade, B: Scirpus juncoides (Scirpus juncoides [9]): 0 (Herbicidal ratio of 5% or lower (almost no effect)) | Herbicidal effect grade, L: Apera spica-venti (Apera spica-venti [10]): 0 (Herbicidal ratio of 5% or lower (almost no effect)) | Herbicidal effect grade, N: Amaranthus retroflexus (Amaranthus retroflexus): 0 (Herbicidal ratio of 5% or lower (almost no effect)) | d: soybean, effect on crop (criteria of Test Example 1) (soybean): 0 (Herbicidal ratio of 5% or lower (almost no effect)) | Herbicidal effect grade, I: Avena fatua (Avena fatua [11]): 0 (Herbicidal ratio of 5% or lower (almost no effect))
